Data from patent US4861763A, “17 α-(substituted-methyl)-17β-hydroxy/esterified hydroxy steroids and their progestational use” (Research Triangle Institute, priority 1988, dated 1989).
Where two headings read alike, the source gives them in different places.

How the values were obtained:
estrogen receptor = biological target: T1, estrogen receptor (Rattus norvegicus, UniProt P06211); assay: relative binding affinity (RBA) for estrogen receptor from immature rat uterus
T1 construct: estrogen receptor from immature rat uterus; from tissue; host or cells: uterus cytosol of immature rats
T1 sequence (P06211 1-600): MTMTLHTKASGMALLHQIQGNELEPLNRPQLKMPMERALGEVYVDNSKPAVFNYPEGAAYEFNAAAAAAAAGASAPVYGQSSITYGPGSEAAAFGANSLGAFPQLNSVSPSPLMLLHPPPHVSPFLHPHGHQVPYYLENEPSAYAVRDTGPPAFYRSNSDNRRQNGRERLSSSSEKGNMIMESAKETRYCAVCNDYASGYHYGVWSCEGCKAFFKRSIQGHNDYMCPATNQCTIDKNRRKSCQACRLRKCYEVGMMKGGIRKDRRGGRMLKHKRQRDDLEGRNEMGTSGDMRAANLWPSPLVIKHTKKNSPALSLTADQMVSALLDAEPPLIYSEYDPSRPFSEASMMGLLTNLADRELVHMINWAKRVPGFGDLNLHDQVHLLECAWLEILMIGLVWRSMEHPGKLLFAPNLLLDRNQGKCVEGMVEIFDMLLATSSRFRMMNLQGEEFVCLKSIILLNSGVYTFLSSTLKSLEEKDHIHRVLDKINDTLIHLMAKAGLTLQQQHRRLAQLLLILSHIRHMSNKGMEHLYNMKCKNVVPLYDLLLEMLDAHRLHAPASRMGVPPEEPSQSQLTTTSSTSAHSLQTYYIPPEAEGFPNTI
Procedure: (§1) concentrations) with cytosol containing the receptor and a tritiumlabeled
(§2) required to displace 50% of bound radioligand is determined graphically

progesterone receptor = biological target: T2, progesterone receptor (Oryctolagus cuniculus, UniProt P06186); assay: relative binding affinity (RBA) for progesterone receptor in cytosol of estrogen-primed immature rabbit uterus; conditions: relative to progesterone = 100; average of 1-3 assays
T2 construct: cytosol obtained from estrogen-primedimmature rabbit uterus; from tissue; host or cells: uterus cytosol of estrogen-primed immature rabbits
T2 sequence (P06186 1-930): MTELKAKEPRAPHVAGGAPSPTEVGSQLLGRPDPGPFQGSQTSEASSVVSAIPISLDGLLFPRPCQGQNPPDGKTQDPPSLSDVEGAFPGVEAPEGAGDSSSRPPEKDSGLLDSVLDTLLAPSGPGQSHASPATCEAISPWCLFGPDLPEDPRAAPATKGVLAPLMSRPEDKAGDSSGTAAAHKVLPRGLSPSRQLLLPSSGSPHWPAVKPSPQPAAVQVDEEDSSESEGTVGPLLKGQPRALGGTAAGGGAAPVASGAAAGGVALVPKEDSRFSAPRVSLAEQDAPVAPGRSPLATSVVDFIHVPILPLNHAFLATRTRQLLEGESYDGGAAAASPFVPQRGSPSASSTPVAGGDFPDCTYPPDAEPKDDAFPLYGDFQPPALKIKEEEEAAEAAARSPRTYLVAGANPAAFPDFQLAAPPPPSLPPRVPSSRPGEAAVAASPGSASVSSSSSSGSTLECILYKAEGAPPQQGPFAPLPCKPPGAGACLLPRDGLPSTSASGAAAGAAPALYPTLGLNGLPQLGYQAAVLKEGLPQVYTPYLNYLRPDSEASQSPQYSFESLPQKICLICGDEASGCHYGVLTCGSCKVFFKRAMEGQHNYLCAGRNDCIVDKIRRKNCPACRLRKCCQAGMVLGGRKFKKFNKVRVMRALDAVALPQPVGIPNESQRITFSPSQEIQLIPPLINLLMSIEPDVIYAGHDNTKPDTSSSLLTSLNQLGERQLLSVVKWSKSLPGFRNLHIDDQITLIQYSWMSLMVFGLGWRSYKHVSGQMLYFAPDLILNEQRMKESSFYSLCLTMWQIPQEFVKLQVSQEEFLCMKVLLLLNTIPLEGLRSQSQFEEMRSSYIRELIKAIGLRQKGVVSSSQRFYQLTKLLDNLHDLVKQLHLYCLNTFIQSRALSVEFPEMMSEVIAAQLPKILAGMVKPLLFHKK
Procedure: as §1, §2

glucocorticoid receptor = biological target: T3, glucocorticoid receptor (Rattus norvegicus, UniProt P06536); assay: relative binding affinity (RBA) for glucocorticoid receptor from thymus of adrenalectomized rats; conditions: for binding to the glucocorticoid receptor, times the RBA of dexamethasone: compared with dexamethasone; for RBA for Glucocorticoid receptor: relative to dexamethasone = 100, average of 1-3 assays
T3 construct: glucocorticoid receptor from thymus of adrenalectomized rats; from tissue; host or cells: thymus cytosol of adrenalectomized rats
T3 sequence (P06536 1-795): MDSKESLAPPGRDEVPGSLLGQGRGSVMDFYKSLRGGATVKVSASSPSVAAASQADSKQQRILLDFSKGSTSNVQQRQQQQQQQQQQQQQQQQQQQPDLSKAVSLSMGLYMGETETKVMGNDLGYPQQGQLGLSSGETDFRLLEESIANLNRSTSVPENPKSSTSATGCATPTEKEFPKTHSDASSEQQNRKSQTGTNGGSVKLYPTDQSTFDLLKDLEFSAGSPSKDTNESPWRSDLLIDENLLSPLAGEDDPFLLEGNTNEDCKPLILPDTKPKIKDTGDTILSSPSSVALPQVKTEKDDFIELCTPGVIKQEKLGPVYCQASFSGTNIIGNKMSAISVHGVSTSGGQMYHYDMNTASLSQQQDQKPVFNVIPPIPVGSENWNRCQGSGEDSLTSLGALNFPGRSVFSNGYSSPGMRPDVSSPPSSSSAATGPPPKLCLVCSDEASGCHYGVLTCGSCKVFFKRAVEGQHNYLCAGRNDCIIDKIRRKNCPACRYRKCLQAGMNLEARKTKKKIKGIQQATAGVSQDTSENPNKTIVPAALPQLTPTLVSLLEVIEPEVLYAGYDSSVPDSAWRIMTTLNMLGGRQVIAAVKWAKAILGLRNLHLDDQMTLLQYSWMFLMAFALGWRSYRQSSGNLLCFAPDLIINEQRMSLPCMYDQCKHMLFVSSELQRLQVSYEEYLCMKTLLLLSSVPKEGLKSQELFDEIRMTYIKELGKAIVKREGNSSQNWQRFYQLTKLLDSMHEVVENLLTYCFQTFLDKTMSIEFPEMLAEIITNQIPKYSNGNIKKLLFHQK
Procedure: as §1, §2

[1] = vs levonorgestrel; cited from earlier work
[2] = in vivo; cited from earlier work
[3] = system: endometrial response due to subcutaneous administration of progesterone; assay: in vivo antiprogestational activity, oral (Clauberg test modified by McPhail); design: species or system rabbit
Source text: (§3) The antiprogestational activity of compound XVa was studied after both intrauterine and oral administration. […] The methodology used for the intrauterine test has been described by D. A. McGinty et al [Endocrinology, 24, 829 (1939)]. For oral administration of test compounds the method used was analogous to that of Clauberg [Clauberg, Zentr. Gynakol, 54, 2757 (1930)] as modified by McPhail [J. Physiol. (London) 83, 145 (1935)].
(§4) ^a Immature female rabbits are primed with estrogen and dosed with
(§5) stained and scored for endometrial proliferation according to McPhail.

[4] = system: endometrial response due to subcutaneous administration of progesterone; assay: in vivo antiprogestational activity, intrauterine (McGinty test); design: species or system rabbit
Source text: as §3, §4, §5

[5] = relative to estradiol = 100, average of 1-3 assays

Row | Molecule | RBA for Estrogen receptor (estrogen receptor; [5]) | RBA for Progestin receptor (progesterone receptor) | RBA for Glucocorticoid receptor (glucocorticoid receptor) | other results
1 | 11β-(4-Dimethylaminophenyl)-17β-hydroxy-17α-methoxymethyl-4,9-estradien-3-one [XVc] | 0 | 54 | 413 | binding to the glucocorticoid receptor, times the RBA of dexamethasone (glucocorticoid receptor): ca. 3 times
2 | C[C@]12CCC3=C4CCC(=O)C=C4CC[C@H]3[C@@H]1CC[C@@]2(O)CC#N [STS 557] |  |  |  | oral potency as a gestagen relative to levonorgestrel [1]: ten times; progestational activity [2]: strong progestational activity
3 | 11β-(4-Dimethylaminophenyl)-17β-hydroxy-17α-benzyl-4,9-estradien-3-one [XVd] | 0 | 64 | 274 | binding to the glucocorticoid receptor, times the RBA of dexamethasone (glucocorticoid receptor): ca. 3 times
4 | CC(=O)[C@H]1CC[C@H]2[C@@H]3CCC4=CC(=O)CC[C@]4(C)[C@H]3CC[C@]12C [Progesterone, reference compound] | 0 |  |  | 
5 | C[C@@H]1C[C@H]2[C@@H]3CCC4=CC(=O)C=C[C@]4(C)[C@@]3(F)[C@@H](O)C[C@]2(C)[C@@]1(O)C(=O)CO [Dexamethasone, reference compound] |  | 0.1 |  | 

Further lines, with some results ahead:

Row | RBA for Estrogen receptor (estrogen receptor; [5]) | RBA for Progestin receptor (progesterone receptor) | RBA for Glucocorticoid receptor (glucocorticoid receptor) | Molecule | other results
6 |  | 33 | 74 | CN(C)c1ccc([C@H]2C[C@@]3(C)[C@@H](CC[C@@]3(O)CC#N)[C@@H]3CCC4=CC(=O)CCC4=C32)cc1 [XVa, 17α-Cyanomethyl-11β-(4-dimethylaminophenyl)-17β-hydroxy-4,9-estradien-3-one] | RBA for Estrogen receptor (estrogen receptor): 0; % Inhibition of Progestational Response ([3]; total dose per rabbit 5 mg): 7.8 ± 6.0%; % Inhibition of Progestational Response ([3]; total dose per rabbit 10 mg): 56.2 ± 7.1%; % Inhibition of Progestational Response ([3]; total dose per rabbit 20 mg): 79.1 ± 7.4%; % Inhibition of Progestational Response ([4]; total dose per rabbit 1.0 μg): 7.3 ± 4.5%; % Inhibition of Progestational Response ([4]; total dose per rabbit 5.0 μg): 26.7 ± 4.5%; % Inhibition of Progestational Response ([4]; total dose per rabbit 10.0 μg): 80.5 ± 9.8%; % Inhibition of Progestational Response ([4]; total dose per rabbit 40.0 μg): 96.3 ± 3.7%
7 | 0 | 23 | 100 | 11β-(4-Dimethylaminophenyl)-17β-hydroxy-17α-prop-2-yn-1-yl- 4,9-estradien-3-one [XVe] | 
8 | 0 | 71 | 143 | 11β-(4-Dimethylaminophenyl)-17β-hydroxy-17α-azidomethyl-4,9-estradien-3-one [XVb] | 
